According to US20250302719A1, “COLLAGEN PRODUCTION PROMOTER, COSMETIC COMPOSITION OR EXTERNAL PREPARATION FOR SKIN, AND PREPARATION FOR ORAL ADMINISTRATION” (YAMASA CORPORATION, priority 2022, published 2025):

What was measured:
[1] = system: Normal human fibroblasts (NHDF); assay: Type I collagen production by normal human fibroblasts directly treated with sample (Example 3, ELISA); format: cell-based; details: direct treatment of normal human fibroblasts with 1.25, 2.5, 5 mM sample, 24 hours
Method: (§1) The effects of promoting collagen production for pyrimidine nucleotides were then evaluated with the culture supernatant from normal human epidermal cells and with fibroblasts. In this evaluation, the effects were compared for the case where the fibroblasts were directly treated with pyrimidine nucleotides and the case where the fibroblasts were treated with the normal human epidermal cell culture supernatant treated with the pyrimidine nucleotides.
Normal human fibroblasts (NHDF; Kurabo) were seeded in a 96-well plate at a density of 2.55×10^4 cells/well/100 μL and cultured at 37° C. for 24 hours. The medium was then replaced with 100 μL of media (HuMedia-KG2; Kurabo) containing CMP, 2Na at 0, 1.25, 2.5, 5 (mM) (i.e., 0, 0.0459, 0.0918, 0.184 (w/v %)) and UMP, 2Na at 0, 1.25, 2.5, 5 (MM) (i.e., 0, 0.046, 0.092, 0.184 (w/v %)), and cultured for 24 hours.
(§2) The culture supernatant of normal human fibroblasts was collected and an amount of type I collagen was quantified by ELISA. The protein amount of the culture supernatant was also measured by BCA protein assay.

[2] = system: freshly extracted human skin; assay: Ex vivo evaluation test using freshly extracted human skin, elastica-van Gieson staining of collagen fibers (Example 4); details: CMP, 2Na 1.0, 2.0 w/v % applied from stratum corneum side, total of 72 hours
Method: To evaluate the effect on actual skin with greater precision, an ex vivo evaluation test was conducted using freshly extracted human skin.
Abdominal skin tissue was used, which was taken from a patient during cosmetic surgery, after obtaining informed consent for use in research. The extracted skin was placed in a culture plate supplemented with 1.3 ml of D-MEM/Ham's F-12 medium, and conditioned overnight at 37° C. in 5% CO2. An appropriate amount of PBS (-) containing a given concentration of each sample was applied from the stratum corneum side, and further cultured for 24 hours. The treatment was continued for a total of 72 hours while replacing the sample and medium with fresh ones every 24 hours. The concentrations of CMP, 2Na in the respective samples were 0, 1.0, and 2.0 (w/v %).
After the cultured skin tissue was fixed according to a standard method, skin tissue sections were prepared, collagen fibers were stained with elastica-van Gieson stain, and observed under a microscope.

Collagen 1A1 (COL1A1) = assay: mRNA expression of COL1A1 in fibroblasts treated with culture supernatant from three-dimensional cultured epidermis (Example 2, real time PCR); format: cell-based, human; details: three-dimensional cultured epidermis treated with CMP, 2Na 1.0, 2.0 w/v %; supernatant on fibroblasts; GAPDH endogenous control
Method: Similarly, the mRNA expression levels of Collagen 1A1 (COL1A1), a factor related to type I collagen synthesis, were quantified by real-time PCR.
(§3) Three-dimensional cultured epidermis (LabCyte EPI MODEL 24; manufactured by J TEC) was set in a 24-well plate to which 500 μL of the attached assay medium was added, and conditioned overnight at 37° C. 50 μL of sample-containing PBS (-) was applied from the stratum corneum side and cultured for 24 hours. After removing the sample-containing PBS (-), the plate was washed with PBS (-). The medium was replaced with a fresh medium, 50 μL of sample-containing PBS (-) was newly applied from the stratum corneum side, and further cultured for 48 hours. After culturing, the culture supernatant was collected. The concentrations of CMP, 2Na in the respective samples were 0, 1.0, and 2.0 (w/v %), respectively.
Normal human fibroblasts were treated with the culture supernatant by the same method as that of Example 1. RNA was extracted from NHDF using RNeasy Mini Kit (QIAGEN), and mRNA expression analysis for collagen 1A1 (COL1A1) was performed by real time PCR ([…]). Glyceraldehyde 3-phosphate dehydrogenase (GAPDH) was used as an endogenous control.

[3] = system: Normal human fibroblasts (NHDF); assay: Type I collagen production by normal human fibroblasts treated with normal human epidermal cell culture supernatant (K-CM, Example 3, ELISA); format: cell-based; details: for amount of collagen in the culture supernatant of normal human fibroblasts (type I collagen): K-CM: supernatant of normal human epidermal cells treated with 1.25, 2.5, 5 mM sample for 24 hours, fibroblasts 24 hours
Method: as §1
Normal human epidermal cells (NHEK; Kurabo) were seeded in a 96-well plate at a density of 2.5×10^4 cells/well and cultured at 37° C. for 24 hours. The medium was replaced with 100 μL of sample-containing medium (HuMedia-KG2; Kurabo) and cultured for 24 hours. After culturing, the culture supernatant was collected. The sample solutions used were 0, 1.25, 2.5, and 5 (mM) (i.e., 0, 0.0459, 0.0918, and 0.184 (w/v %)) of CMP, 2Na, and 0, 1.25, 2.5, and 5 (mM) (i.e., 0, 0.046, 0.092, and 0.184 (w/v %)) of UMP, 2Na.
Normal human fibroblasts (NHDF; Kurabo) were seeded in a 96-well plate at a density of 2.5×10^4 cells/well/100 μL and cultured at 37° C. for 24 hours. The medium was then replaced with 100 μL of the culture supernatant obtained in the culture supernatant acquisition step from the three-dimensional cultured epidermis as described above and cultured for 24 hours.
as §2

[4] = system: Normal human fibroblasts (NHDF); assay: Type I collagen production by normal human fibroblasts treated with culture supernatant from three-dimensional cultured epidermis (Example 1, ELISA); format: cell-based; details: three-dimensional cultured epidermis treated with CMP, 2Na 0.125, 0.25, 1.0, 2.0 w/v % from stratum corneum side, supernatant on fibroblasts 24 hours
Method: To reproduce the phenomenon that would occur in actual epidermis, the effect of promoting collagen production for pyrimidine nucleotides was evaluated with a culture supernatant from three-dimensional cultured epidermis, and with fibroblasts.
as §3, with “The samples to be treated with UVB were irradiated with 600 mJ/cm^2 using a UVB lamp (TL20W/12RS; manufactured by PHILIPS). For both samples with and without the UVB treatment, the media were” for “The medium was”, “with” for “with a”, “fresh media,” for “fresh medium,”, “0, 0.125, 0.25, 1.0” for “0, 1.0,”, “respectively. […]” for “respectively.”
The culture supernatant from normal human fibroblasts was collected and an amount of type I collagen was quantified by ELISA. The protein amount of the culture supernatant was also measured by BCA protein assay.

[5] = system: cultured human skin fibroblasts; details: uridylic acid alone, as disclosed in Patent Literature 1; cited from earlier work

SMILES | amount of collagen (type I collagen) [1] | collagen fibers in dermis (elastica-van Gieson stain) [2] | expression level of COL1A1 (mRNA, relative to 0 w/v %) (Collagen 1A1 (COL1A1)) | effect of promoting collagen production, cytidylic acid compared with uridylic acid ([3]; Example 3) | amount of collagen in the culture supernatant of normal human fibroblasts (type I collagen) [3] | amount of collagen in the culture supernatant from normal human fibroblasts (type I collagen) ([4]; UVB 600 mJ/cm^2) | amount of collagen in the culture supernatant from normal human fibroblasts (type I collagen) ([4]; UVB (-)) | effect of promoting collagen production [5]
Nc1ccn([C@@H]2O[C@H](COP(=O)(O)O)[C@@H](O)[C@H]2O)c(=O)n1 [CMP, 2Na, disodium cytidylate] | no increase | tended to result in denser collagen fibers | increased | higher effect of promoting collagen production | increased | increased | increased | 
O=c1ccn([C@@H]2O[C@H](COP(=O)(O)O)[C@@H](O)[C@H]2O)c(=O)[nH]1 [UMP, 2Na, disodium uridylate] | no increase |  |  |  | increased |  |  | no effect of promoting collagen production
